Source: ChEMBL document CHEMBL4715698, “Design and synthesis of novel selective anaplastic lymphoma kinase inhibitors” (Bioorg Med Chem Lett, 2016)
In brackets after ≈: the same amount, converted by molar mass.

Legend:
BaF3 = experiment: Antiproliferative activity against wild type mouse BaF3 cells assessed as reduction in cell growth incubated for 2 to 3 days by Bright-Glo luciferase assay
EML4-ALK = EML4-ALK (Homo sapiens, UniProt Q9UM73); experiment: Inhibition EML4-ALK (unknown origin); type: protein assay
[1] = biological target: NPM/ALK (Nucleophosmin/ALK tyrosine kinase receptor) (Homo sapiens, UniProt Q9UM73); experiment: Inhibition NMP-ALK (unknown origin); type: protein assay
[2] = biological target: ALK tyrosine kinase receptor (Homo sapiens, UniProt Q9UM73); experiment: Inhibition of ALK (unknown origin)
Chain of ALK tyrosine kinase receptor (Q9UM73 whole entry): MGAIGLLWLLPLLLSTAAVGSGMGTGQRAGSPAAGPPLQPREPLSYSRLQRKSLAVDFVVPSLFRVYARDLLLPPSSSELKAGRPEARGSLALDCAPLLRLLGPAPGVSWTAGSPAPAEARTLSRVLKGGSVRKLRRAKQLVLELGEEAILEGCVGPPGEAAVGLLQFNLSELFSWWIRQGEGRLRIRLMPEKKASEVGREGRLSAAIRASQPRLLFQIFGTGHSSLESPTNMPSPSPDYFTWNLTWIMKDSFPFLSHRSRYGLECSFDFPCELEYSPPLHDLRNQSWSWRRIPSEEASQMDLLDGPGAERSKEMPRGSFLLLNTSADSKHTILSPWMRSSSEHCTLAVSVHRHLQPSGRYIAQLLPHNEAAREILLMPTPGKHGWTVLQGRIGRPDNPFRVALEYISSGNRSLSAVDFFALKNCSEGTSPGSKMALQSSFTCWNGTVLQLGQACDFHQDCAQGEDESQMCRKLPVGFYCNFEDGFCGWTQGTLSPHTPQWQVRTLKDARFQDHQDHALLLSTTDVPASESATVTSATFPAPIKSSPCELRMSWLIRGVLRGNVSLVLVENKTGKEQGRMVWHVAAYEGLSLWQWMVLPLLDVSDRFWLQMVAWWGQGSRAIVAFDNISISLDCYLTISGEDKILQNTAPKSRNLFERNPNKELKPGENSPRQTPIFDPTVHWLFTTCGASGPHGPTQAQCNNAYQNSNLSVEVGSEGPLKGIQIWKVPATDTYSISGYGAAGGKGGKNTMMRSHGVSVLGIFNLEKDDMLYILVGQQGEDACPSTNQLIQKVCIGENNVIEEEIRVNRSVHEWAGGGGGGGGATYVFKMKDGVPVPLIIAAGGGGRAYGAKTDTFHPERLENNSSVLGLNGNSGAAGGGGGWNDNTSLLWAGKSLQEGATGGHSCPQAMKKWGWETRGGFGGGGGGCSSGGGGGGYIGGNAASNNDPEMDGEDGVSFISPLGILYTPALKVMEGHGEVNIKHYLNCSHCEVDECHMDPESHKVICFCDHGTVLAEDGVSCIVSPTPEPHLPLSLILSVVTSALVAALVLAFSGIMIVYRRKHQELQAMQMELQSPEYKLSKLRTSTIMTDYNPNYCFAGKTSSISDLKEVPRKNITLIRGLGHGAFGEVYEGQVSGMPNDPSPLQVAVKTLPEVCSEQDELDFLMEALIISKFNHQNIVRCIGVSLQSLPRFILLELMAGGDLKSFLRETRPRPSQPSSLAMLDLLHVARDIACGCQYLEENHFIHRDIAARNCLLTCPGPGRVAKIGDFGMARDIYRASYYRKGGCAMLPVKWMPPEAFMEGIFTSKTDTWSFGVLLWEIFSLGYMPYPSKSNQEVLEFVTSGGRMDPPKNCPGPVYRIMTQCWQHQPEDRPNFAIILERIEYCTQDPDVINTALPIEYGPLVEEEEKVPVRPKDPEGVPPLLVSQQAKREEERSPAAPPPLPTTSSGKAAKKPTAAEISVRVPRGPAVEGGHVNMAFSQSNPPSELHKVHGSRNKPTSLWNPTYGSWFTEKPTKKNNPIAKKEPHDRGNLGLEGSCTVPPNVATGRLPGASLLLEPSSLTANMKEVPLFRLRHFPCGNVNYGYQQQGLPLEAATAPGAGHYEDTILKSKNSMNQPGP

[3] = biological target: Tyrosine-protein kinase BTK (Homo sapiens, UniProt Q06187); experiment: Inhibition of BTK (unknown origin)
[4] = biological target: Tyrosine-protein kinase ABL1 (Homo sapiens, UniProt P00519); experiment: Inhibition of ABL (unknown origin)
Chain of Tyrosine-protein kinase ABL1 (P00519 whole entry): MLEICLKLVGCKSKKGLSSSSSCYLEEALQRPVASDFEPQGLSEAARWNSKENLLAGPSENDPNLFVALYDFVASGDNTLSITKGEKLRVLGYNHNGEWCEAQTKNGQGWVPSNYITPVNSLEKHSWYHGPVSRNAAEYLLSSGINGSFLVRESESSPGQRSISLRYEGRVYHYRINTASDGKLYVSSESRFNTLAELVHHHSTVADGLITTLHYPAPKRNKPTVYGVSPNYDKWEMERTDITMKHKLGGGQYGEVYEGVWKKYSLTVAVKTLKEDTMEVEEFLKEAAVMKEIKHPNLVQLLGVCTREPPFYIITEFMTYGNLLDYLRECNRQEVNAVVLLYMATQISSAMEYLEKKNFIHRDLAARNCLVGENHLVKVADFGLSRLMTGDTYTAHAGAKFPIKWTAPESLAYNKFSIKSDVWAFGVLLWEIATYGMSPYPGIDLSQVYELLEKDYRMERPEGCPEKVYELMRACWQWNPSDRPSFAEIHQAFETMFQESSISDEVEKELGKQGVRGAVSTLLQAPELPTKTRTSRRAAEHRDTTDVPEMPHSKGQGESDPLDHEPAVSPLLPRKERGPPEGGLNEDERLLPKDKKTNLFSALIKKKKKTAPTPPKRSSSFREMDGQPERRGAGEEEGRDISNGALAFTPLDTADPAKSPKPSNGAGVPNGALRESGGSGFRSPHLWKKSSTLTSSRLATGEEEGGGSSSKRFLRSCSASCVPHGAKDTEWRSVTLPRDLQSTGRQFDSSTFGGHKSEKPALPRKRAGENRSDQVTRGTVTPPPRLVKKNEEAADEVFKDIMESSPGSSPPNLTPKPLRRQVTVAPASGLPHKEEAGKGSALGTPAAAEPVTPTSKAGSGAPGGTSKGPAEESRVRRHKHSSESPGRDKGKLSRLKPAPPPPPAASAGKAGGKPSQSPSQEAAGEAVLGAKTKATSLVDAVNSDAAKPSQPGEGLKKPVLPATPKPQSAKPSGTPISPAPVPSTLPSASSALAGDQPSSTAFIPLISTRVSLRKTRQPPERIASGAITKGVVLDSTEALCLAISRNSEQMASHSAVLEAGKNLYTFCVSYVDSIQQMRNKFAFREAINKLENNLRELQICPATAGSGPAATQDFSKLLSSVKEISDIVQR

[5] = biological target: RAC-alpha serine/threonine-protein kinase (Homo sapiens, UniProt P31749); experiment: Inhibition of AKT (unknown origin)
[6] = Inhibition of Aurora (unknown origin); parameters: species or system Homo sapiens
[7] = biological target: Cyclin-dependent kinase 2 (Homo sapiens, UniProt P24941); experiment: Inhibition of CDK2 (unknown origin)
[8] = biological target: Glycogen synthase kinase-3 beta (Homo sapiens, UniProt P49841); experiment: Inhibition of GSK3beta (unknown origin)
[9] = biological target: Tyrosine-protein kinase JAK1 (Homo sapiens, UniProt P23458); experiment: Inhibition of JAK1 (unknown origin)
[10] = biological target: Tyrosine-protein kinase JAK2 (Homo sapiens, UniProt O60674); experiment: Inhibition of JAK2 (unknown origin)
[11] = biological target: Tyrosine-protein kinase JAK3 (Homo sapiens, UniProt P52333); experiment: Inhibition of JAK3 (unknown origin)
[12] = biological target: Mitogen-activated protein kinase 1 (Homo sapiens, UniProt P28482); experiment: Inhibition of MAPK1 (unknown origin)
[13] = biological target: Serine/threonine-protein kinase PLK1 (Homo sapiens, UniProt P53350); experiment: Inhibition of PLK1 (unknown origin)
[14] = biological target: Non-receptor tyrosine-protein kinase TYK2 (Homo sapiens, UniProt P29597); experiment: Inhibition of TYK2 (unknown origin)
Ephrin type-A receptor 4 = Ephrin type-A receptor 4 (Homo sapiens, UniProt P54764); experiment: Inhibition of EphA4 (unknown origin)
Ephrin type-B receptor 4 = Ephrin type-B receptor 4 (Homo sapiens, UniProt P54760); experiment: Inhibition of EphB4 (unknown origin)
[15] = biological target: Fibroblast growth factor receptor 4 (Homo sapiens, UniProt P22455); experiment: Inhibition of FGFR4 (unknown origin)
[16] = biological target: Fibroblast growth factor receptor 3 (Homo sapiens, UniProt P22607); experiment: Inhibition of FGFR3 (unknown origin)
[17] = biological target: Epidermal growth factor receptor (Homo sapiens, UniProt P00533); experiment: Inhibition of HER1 (unknown origin)
[18] = biological target: Receptor tyrosine-protein kinase erbB-2 (Homo sapiens, UniProt P04626); experiment: Inhibition of HER2 (unknown origin)
[19] = biological target: Insulin-like growth factor 1 receptor (Homo sapiens, UniProt P08069); experiment: Inhibition of IGF-1R (unknown origin)
[20] = biological target: Vascular endothelial growth factor receptor 2 (Homo sapiens, UniProt P35968); experiment: Inhibition of KDR (unknown origin)
[21] = biological target: Tyrosine-protein kinase Lck (Homo sapiens, UniProt P06239); experiment: Inhibition of LCK (unknown origin)
Chain of Tyrosine-protein kinase Lck (P06239 whole entry): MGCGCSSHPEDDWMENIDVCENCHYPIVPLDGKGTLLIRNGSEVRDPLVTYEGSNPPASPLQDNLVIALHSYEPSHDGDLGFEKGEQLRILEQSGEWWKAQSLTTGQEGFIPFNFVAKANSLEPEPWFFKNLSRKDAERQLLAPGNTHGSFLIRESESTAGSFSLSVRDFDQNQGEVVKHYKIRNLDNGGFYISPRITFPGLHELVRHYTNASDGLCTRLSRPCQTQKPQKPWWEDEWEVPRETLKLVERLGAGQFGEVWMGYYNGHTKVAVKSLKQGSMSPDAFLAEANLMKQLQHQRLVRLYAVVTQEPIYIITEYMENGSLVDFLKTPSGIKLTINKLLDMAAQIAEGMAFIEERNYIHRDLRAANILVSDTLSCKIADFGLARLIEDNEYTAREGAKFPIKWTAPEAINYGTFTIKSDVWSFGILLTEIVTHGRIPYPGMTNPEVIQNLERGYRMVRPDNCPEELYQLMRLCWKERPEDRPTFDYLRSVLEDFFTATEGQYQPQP

[22] = biological target: Platelet-derived growth factor receptor alpha (Homo sapiens, UniProt P16234); experiment: Inhibition of PDGFRalpha (unknown origin)
[23] = biological target: Proto-oncogene tyrosine-protein kinase receptor Ret (Homo sapiens, UniProt P07949); experiment: Inhibition of RET (unknown origin)
[24] = biological target: Tyrosine-protein kinase SYK (Homo sapiens, UniProt P43405); experiment: Inhibition of SYK (unknown origin)
[25] = biological target: Mast/stem cell growth factor receptor Kit (Homo sapiens, UniProt P10721); experiment: Inhibition of c-KIT (unknown origin)
[26] = biological target: Hepatocyte growth factor receptor (Homo sapiens, UniProt P08581); experiment: Inhibition of MET (unknown origin)
[27] = Metabolic stability in mouse liver microsomes assessed as intrinsic clearance; type: ADME, Microsome; conditions: read-out: CLH
[28] = Metabolic stability in rat liver microsomes assessed as intrinsic clearance; type: ADME, Microsome; conditions: read-out: CLH
[29] = Metabolic stability in human liver microsomes assessed as intrinsic clearance; type: ADME, Microsome; conditions: read-out: CLH
Cytochrome P450 3A4 = Cytochrome P450 3A4 (Homo sapiens, UniProt P08684); experiment: Inhibition of CYP3A4 (unknown origin) using midazolam as substrate; type: ADME
Chain of Cytochrome P450 3A4 (P08684 whole entry): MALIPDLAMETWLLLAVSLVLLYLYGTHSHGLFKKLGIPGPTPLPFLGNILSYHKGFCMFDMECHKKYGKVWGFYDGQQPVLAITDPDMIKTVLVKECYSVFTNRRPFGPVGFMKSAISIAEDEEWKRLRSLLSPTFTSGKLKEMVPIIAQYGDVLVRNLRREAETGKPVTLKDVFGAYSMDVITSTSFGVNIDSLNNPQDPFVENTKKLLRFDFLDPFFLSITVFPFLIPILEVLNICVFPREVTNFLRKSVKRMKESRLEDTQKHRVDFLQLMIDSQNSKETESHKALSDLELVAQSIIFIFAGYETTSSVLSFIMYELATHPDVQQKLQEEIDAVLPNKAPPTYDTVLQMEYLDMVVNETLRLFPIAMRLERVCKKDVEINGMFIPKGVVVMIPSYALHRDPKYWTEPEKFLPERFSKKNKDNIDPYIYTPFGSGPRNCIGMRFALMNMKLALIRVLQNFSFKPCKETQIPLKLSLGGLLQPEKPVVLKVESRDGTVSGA

[30] = Solubility in DMSO at pH 6.8 by high-throughput solubility assay; type: physicochemical
[31] = Permeability of compound by PAMPA assay; type: ADME
[32] = biological target: Voltage-gated inwardly rectifying potassium channel KCNH2 (Homo sapiens, UniProt Q12809); experiment: Inhibition of human ERG by dofetilide binding assay
Chain of Voltage-gated inwardly rectifying potassium channel KCNH2 (Q12809 whole entry): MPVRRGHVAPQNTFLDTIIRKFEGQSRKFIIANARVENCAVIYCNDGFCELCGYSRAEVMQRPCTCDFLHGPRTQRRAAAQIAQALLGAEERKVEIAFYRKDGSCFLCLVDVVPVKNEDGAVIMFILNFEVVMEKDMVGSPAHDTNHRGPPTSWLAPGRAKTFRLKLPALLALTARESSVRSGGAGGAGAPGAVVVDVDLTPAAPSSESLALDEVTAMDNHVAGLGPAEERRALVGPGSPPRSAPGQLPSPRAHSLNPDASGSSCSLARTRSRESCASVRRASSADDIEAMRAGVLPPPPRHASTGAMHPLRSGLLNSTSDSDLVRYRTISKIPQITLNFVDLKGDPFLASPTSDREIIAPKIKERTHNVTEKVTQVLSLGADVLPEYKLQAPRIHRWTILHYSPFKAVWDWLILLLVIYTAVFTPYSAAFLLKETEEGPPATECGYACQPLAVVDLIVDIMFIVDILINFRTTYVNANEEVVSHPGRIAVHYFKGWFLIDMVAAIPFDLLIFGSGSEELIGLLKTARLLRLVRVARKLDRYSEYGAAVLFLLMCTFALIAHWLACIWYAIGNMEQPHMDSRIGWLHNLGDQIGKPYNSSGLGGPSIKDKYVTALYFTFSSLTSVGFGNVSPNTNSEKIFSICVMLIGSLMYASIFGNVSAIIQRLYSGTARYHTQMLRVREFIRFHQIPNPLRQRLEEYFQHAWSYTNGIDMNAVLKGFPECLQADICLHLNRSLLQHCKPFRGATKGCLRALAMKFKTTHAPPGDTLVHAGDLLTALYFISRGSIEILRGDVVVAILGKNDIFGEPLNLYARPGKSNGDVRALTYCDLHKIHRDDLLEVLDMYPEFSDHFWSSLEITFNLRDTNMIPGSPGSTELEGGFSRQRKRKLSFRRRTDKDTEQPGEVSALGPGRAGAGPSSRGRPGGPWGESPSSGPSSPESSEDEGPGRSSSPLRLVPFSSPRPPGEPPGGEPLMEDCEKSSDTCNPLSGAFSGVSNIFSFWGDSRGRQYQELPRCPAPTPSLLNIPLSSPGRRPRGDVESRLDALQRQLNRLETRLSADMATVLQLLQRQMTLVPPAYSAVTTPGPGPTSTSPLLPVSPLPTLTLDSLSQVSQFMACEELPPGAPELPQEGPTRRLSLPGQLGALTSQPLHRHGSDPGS

[33] = Clearance in mouse at 5 mg/kg, iv; type: ADME, organism-based; conditions: in vivo
[34] = Volume of distribution at steady state in mouse at 5 mg/kg, iv; type: ADME, organism-based; conditions: in vivo, read-out: Vdss
[35] = Cmax in mouse at 20 mg/kg, po; type: ADME, organism-based; parameters: route oral, dose 20 mg/kg; conditions: in vivo
[36] = AUC in mouse at 20 mg/kg, po; type: ADME, organism-based; parameters: dose 20 mg/kg; conditions: in vivo
[37] = Oral bioavailability in mouse at 20 mg/kg; type: ADME, organism-based; conditions: in vivo
[38] = Clearance in rat at 3 mg/kg, iv; type: ADME, organism-based; conditions: in vivo
[39] = Volume of distribution at steady state in rat at 3 mg/kg, iv; type: ADME, organism-based; conditions: in vivo, read-out: Vdss
[40] = Cmax in rat at 10 mg/kg, po; type: ADME, organism-based; parameters: route oral, dose 10 mg/kg; conditions: in vivo
[41] = AUC in rat at 10 mg/kg, po; type: ADME, organism-based; parameters: dose 10 mg/kg; conditions: in vivo
[42] = Oral bioavailability in rat at 10 mg/kg; type: ADME, organism-based; conditions: in vivo
KARPAS-299 [43] = experiment: Antitumor activity against human KARPAS-299 cells harboring NMP-ALK xenografted in SCID mouse assessed as tumor regression administered for 9 days and measured on day 9; type: functional; conditions: time 9.0 day
KARPAS-299 [44] = experiment: Antitumor activity against human KARPAS-299 cells harboring NMP-ALK xenografted in SCID mouse assessed as tumor shrinkage by measuring T/C ratio at 25 mg/kg administered for 9 days and measured on day 9 (reference value: 100 %); type: functional; conditions: time 9 day
KARPAS-299 [45] = experiment: Antitumor activity against human KARPAS-299 cells harboring NMP-ALK xenografted in SCID mouse assessed as tumor regression by measuring T/C ratio at 50 mg/kg administered for 9 days and measured on day 9 (reference value: 100 %); type: functional; conditions: time 9 day
[46] = Toxicity in SCID mouse xenografted with human KARPAS-299 cells harboring NMP-ALK assessed as reduction in body weight at 25 to 50 mg/kg administered for 9 days and measured on day 9; type: organism-based; conditions: in vivo, 216 h, dose 25-50 mg/kg, time 9 day

SMILES: COc1ccc2nc(Nc3cc(C)c(C4CCN(C)CC4)cc3OC(C)C)nc(Nc3ccccc3S(=O)(=O)C(C)C)c2c1
- IC50 (BaF3): 3.94 µM

SMILES: Cc1cc(Nc2nc(Nc3ccccc3S(=O)(=O)C(C)C)c3cccnc3n2)c(OC(C)C)cc1C1CCNCC1
- IC50 (BaF3): 7.23 µM

SMILES: Cc1cc(Nc2nc(Nc3ccccc3S(=O)(=O)C(C)C)c3[nH]nnc3n2)c(OC(C)C)cc1C1CCN(C)CC1
- IC50 (BaF3): > 10 µM

SMILES: Cc1cc(Nc2nc(Nc3ccccc3S(=O)(=O)C(C)C)c3c(C)[nH]nc3n2)c(OC(C)C)cc1C1CCN(C)CC1
- IC50 (EML4-ALK): 0.01 µM
- IC50 [1]: 0.03 µM
- IC50 (BaF3): 2.51 µM
- IC50 [2]: 0.004 µM
- IC50 [3]: 9.4 µM
- IC50 [4]: 1.4 µM
- IC50 [5]: 7.6 µM
- IC50 [6]: > 10 µM
- IC50 [7]: 0.92 µM
- IC50 [8]: 4.3 µM
- IC50 [9]: > 10 µM
- IC50 [10]: > 10 µM
- IC50 [11]: > 10 µM
- IC50 [12]: > 10 µM
- IC50 [13]: 3.9 µM
- IC50 [14]: > 10 µM
- IC50 (Ephrin type-A receptor 4): > 10 µM
- IC50 (Ephrin type-B receptor 4): 2.9 µM
- IC50 [15]: > 10 µM
- IC50 [16]: > 10 µM
- IC50 [17]: 0.96 µM
- IC50 [18]: 7.8 µM
- IC50 [19]: 0.47 µM
- IC50 [20]: 7.4 µM
- IC50 [21]: 4.3 µM
- IC50 [22]: 9.7 µM
- IC50 [23]: 3.6 µM
- IC50 [24]: > 10 µM
- IC50 [25]: > 10 µM
- IC50 [26]: 8.1 µM
- microsomal CLint [27]: 13 µL/min/mg
- microsomal CLint [28]: 33 µL/min/mg
- microsomal CLint [29]: 19 µL/min/mg
- IC50 (Cytochrome P450 3A4): > 25 µM
- solubility [30]: 114 µM (≈ 67.5 µg/mL)
- log(permeability) [31]: -4.9
- IC50 [32]: 20.8 µM
- clearance [33]: 4.26 L/h/kg
- Vd [34]: 12.1 L/kg
- Cmax [35]: 0.429 µM
- AUC [36]: 4.9 µM·h
- bioavailability [37]: 58%
- clearance [38]: 1.92 L/h/kg
- Vd [39]: 19.4 L/kg
- Cmax [40]: 0.151 µM
- AUC [41]: 3.07 µM·h
- bioavailability [42]: 35%
- Activity (KARPAS-299 [43]): Dose-dependent effect
- T/C (KARPAS-299 [44]): 37%
- T/C (KARPAS-299 [45]): -54%
- Activity [46]: Non-Toxic

SMILES: Cc1cc(Nc2cc(Nc3ccccc3S(=O)(=O)C(C)C)nc3[nH]ccc23)c(OC(C)C)cc1C1CCN(C)CC1
- IC50 (BaF3): 2.6 µM

SMILES: Cc1cc(NC2=NC3NCCCC3C(Nc3ccccc3S(=O)(=O)C(C)C)=N2)c(OC(C)C)cc1C1CCNCC1 (configuration not stated)
- IC50 (BaF3): 2.03 µM

SMILES: Cc1cc2c(Nc3ccccc3S(=O)(=O)C(C)C)nc(Nc3cc(C)c(C4CCN(C)CC4)cc3OC(C)C)nc2[nH]1
- IC50 (BaF3): 5.73 µM

SMILES: Cc1cc2c(Nc3ccccc3S(=O)(=O)C(C)C)nc(Nc3cc(C)c(C4CCNCC4)cc3OC(C)C)nc2[nH]1
- IC50 (BaF3): 5.41 µM

SMILES: Cc1cc(Nc2nc(Nc3ccccc3S(=O)(=O)C(C)C)c3c(C)n[nH]c3n2)c(OC(C)C)cc1C1CCNCC1
- IC50 (BaF3): 5.54 µM

SMILES: Cc1cc(Nc2nc(Nc3ccccc3S(=O)(=O)C(C)C)c3cn[nH]c3n2)c(OC(C)C)cc1C1CCN(C)CC1
- IC50 (BaF3): 5.12 µM
- microsomal CLint [27]: 37 µL/min/mg
- microsomal CLint [28]: 30 µL/min/mg
- microsomal CLint [29]: 32 µL/min/mg
- IC50 (Cytochrome P450 3A4): 3.3 µM
- solubility [30]: > 175 µM
- log(permeability) [31]: -4.1
- IC50 [32]: 1 µM

SMILES: Cc1cc(Nc2nc(Nc3ccccc3S(=O)(=O)C(C)C)c3cc[nH]c3n2)c(OC(C)C)cc1C1CCN(C)CC1
- IC50 (BaF3): 3.42 µM
- microsomal CLint [27]: 62 µL/min/mg
- microsomal CLint [28]: 34 µL/min/mg
- microsomal CLint [29]: 25 µL/min/mg
- IC50 (Cytochrome P450 3A4): 4.5 µM
- solubility [30]: 10.4 µM (≈ 6 µg/mL)
- log(permeability) [31]: < -3.3
- IC50 [32]: 1.7 µM
- clearance [33]: 3.48 L/h/kg
- Vd [34]: 10.8 L/kg
- Cmax [35]: 0.425 µM
- AUC [36]: 5.98 µM·h
- bioavailability [37]: 59%
- clearance [38]: 0.9 L/h/kg
- Vd [39]: 13.7 L/kg
- Cmax [40]: 0.291 µM
- AUC [41]: 7.19 µM·h
- bioavailability [42]: 35%

SMILES: Cc1cc(Nc2nc(Nc3ccccc3S(=O)(=O)C(C)C)c3c(N)n[nH]c3n2)c(OC(C)C)cc1C1CCN(C)CC1
- IC50 (BaF3): 4.5 µM

SMILES: Cc1cc(Nc2nc(Nc3ccccc3S(=O)(=O)C(C)C)c3ccccc3n2)c(OC(C)C)cc1C1CCN(C)CC1
- IC50 (BaF3): 3.24 µM

SMILES: Cc1cc(Nc2nc(Nc3ccccc3S(=O)(=O)C(C)C)c3cn[nH]c3n2)c(OC(C)C)cc1C1CCNCC1
- IC50 (BaF3): 6.22 µM

SMILES: Cc1cc(Nc2cc(Nc3ccccc3S(=O)(=O)C(C)C)c3cc[nH]c3n2)c(OC(C)C)cc1C1CCN(C)CC1
- IC50 (BaF3): 4.91 µM
- IC50 [2]: > 25 µM

SMILES: Cc1cc(Nc2nc(Nc3ccccc3S(=O)(=O)C(C)C)c3cc[nH]c3n2)c(OC(C)C)cc1C1CCNCC1
- IC50 (BaF3): 2.22 µM
- microsomal CLint [27]: 15 µL/min/mg
- microsomal CLint [28]: 14 µL/min/mg
- microsomal CLint [29]: 22 µL/min/mg
- IC50 (Cytochrome P450 3A4): 4.6 µM
- solubility [30]: 8.1 µM (≈ 4.56 µg/mL)
- log(permeability) [31]: -5.7
- clearance [33]: 2.4 L/h/kg
- Vd [34]: 7.3 L/kg
- Cmax [35]: 0.051 µM
- AUC [36]: 0.406 µM·h
- bioavailability [37]: 3%
